Experimental data as given in paper PMC7794297.

Legend:
[1] = Spermine-templated DCL of building blocks 1-4; conditions: spermine DCL of 1-4
Method: Building blocks 2 and 3 equipped with carboxylate moieties to establish interactions with the protonated amine groups of the spermine were allowed to equilibrate at pH 7.8 and 6 °C (Fig. 8a). As expected in our control experiment, the major component in the absence of spermine was the linear tetramer (2)2(3)2. After the addition of spermine, the linear tetramer “decomposed” in order to form mainly the cyclic tetramer of (2)4, and the (3)2 dimer (Fig. 8a). As it was reported, several studies determined that the spermine was threaded through the macrocycle fixing the configuration to a highly symmetric stereoisomer of (2)4[36]. […] The precise composition of the DCL (with and without spermine), was assessed by measuring the relative peak area (RPA). Indeed, the normalized change of RPA was used to quantify the spermine influence in the outcome (Supplementary Fig. 42)[46]. The same template (spermine) was tested in our reference DCL of four building blocks (1–4) in the absence and presence of Secox (Fig. 8b). […] Additionally, two different templates were tested to confirm the absence of conflict between selenocystine and the templating effect. Spermidine and NADPH were introduced in our 4 building blocks DCL (1–4) in the absence and presence of Secox, leading to the amplification of different species and getting the same results as the non-catalyzed DCLs (Supplementary Figs. 44, 45, Supplementary Tables 7–10, and Supplementary Methods).
The mixture was stabilized in 96 h. […] The mixture was stabilized after 24 h. […] It was stabilized in 24 h. […] DCL was equilibrated in 96 h. DCLs were performed without stirring at 6 °C and analyzed by HPLC-MS.

[2] = Solubility under DCL conditions; format: physicochemical; conditions: aqueous buffer; basic pH and 2.5% (v/v) DMSO
From the text: reaction of compound 3 to (3)2 in the presence of selenocystine and DMSO. The accelerating role of DMSO wa s disca rded by running control experim ents containing up to 20% (v/v) DMSO, which is much larger than the amount of this co-solvent used in our standard conditions (2.5% (v/v) DMSO).
1) All the amino acids shown in Figure 3 have D-stereochemistry. I guess this is an error, please amend that. The same issue states for the structures in Figure 1.
Thank you. It has been corrected.
2) For every mention to % of a reagent, especially in the methods part, it should be clearly stated if this is volume, weight of molar percent, and with respect to what.
Thank you. It has been included.
3) Some of the disulfides formed in the libraries (i.e. (4)2) are expected to be poorly soluble in buffered water. […] When quantifying species in a mixture, solubility problems must be carefully […]
1.The main problem of the MS is that the authors only describe the rate enhancement by comparing if the reactions have reached equilibrium after 24 h or 96 h, as characterised by HPLC. It is shown for different ratios of the catalyst, but it doesn’t provide any quantitative measure of the rate acceleration. […] The authors should provide quantitative characterisation of the rate constants, starting with a simple homodimerisation of thiols, as it is done in ref. 15. […]

[3] = target: glucose oxidase (GOx) (Aspergillus niger, UniProt P13006); test: GOx activity assay, glucose oxidase-horseradish peroxidase coupled system with o-dianisidine; format: biochemical; design: purchased Sigma Aldrich; conditions: for 1/Vo: Lineweaver-Burk;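 for GOx activity: GOx activity followed by o-dianisidine absorbance at 500 nm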
Chain of glucose oxidase (GOx) (P13006 17-605): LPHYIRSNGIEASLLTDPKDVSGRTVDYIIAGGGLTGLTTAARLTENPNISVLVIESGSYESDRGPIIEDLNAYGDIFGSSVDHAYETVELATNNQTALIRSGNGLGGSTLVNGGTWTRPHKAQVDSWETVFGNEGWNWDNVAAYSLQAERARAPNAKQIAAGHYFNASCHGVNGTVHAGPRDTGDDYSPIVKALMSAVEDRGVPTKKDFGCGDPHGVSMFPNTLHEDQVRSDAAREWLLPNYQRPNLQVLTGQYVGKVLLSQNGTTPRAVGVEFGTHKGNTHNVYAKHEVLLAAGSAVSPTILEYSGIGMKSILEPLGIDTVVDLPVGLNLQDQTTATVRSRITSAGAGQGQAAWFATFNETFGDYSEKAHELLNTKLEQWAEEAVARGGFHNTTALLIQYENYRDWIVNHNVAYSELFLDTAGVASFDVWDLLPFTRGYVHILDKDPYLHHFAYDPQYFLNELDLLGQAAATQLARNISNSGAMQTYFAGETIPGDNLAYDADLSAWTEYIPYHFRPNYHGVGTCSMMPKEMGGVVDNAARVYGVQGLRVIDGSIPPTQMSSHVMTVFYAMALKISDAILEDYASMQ

[4] = NADPH-templated DCL of building blocks 1-4;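 note: values are means ± SD of DCC experiments run in triplicate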
[5] = Spermidine-templated DCL of building blocks 1-4;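 note: Spermidine-templated dynamic combinatorial library, normalized change of RPA compared between Secox-free and Secox-containing libraries, DCC runs done in triplicate, values given as mean ± SD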

c1ccc(SSc2ccccc2)cc1 [(4)2]
Normalized Change of RPA (NC) ([1]; 0% Secox): 0,59 | Normalized Change of RPA (NC) ([1]; 5% Secox): 0,53 | solubility [2]: ≤ 2000 µM | GOx Activity ([3]; IC50 data, inhibitor 1.4 nM, glucose 10 mM): 0.07285 min⁻¹ | GOx Activity ([3]; IC50 data, inhibitor 3.5 nM, glucose 10 mM): 0.0762 min⁻¹ | GOx Activity ([3]; IC50 data, inhibitor 7.0 nM, glucose 10 mM): 0.0665 min⁻¹ | GOx Activity ([3]; IC50 data, inhibitor 14.0 nM, glucose 10 mM): 0.0785 min⁻¹ | GOx Activity ([3]; IC50 data, inhibitor 70.0 nM, glucose 10 mM): 0.0871 min⁻¹ | GOx Activity ([3]; IC50 data, inhibitor 140.0 nM, glucose 10 mM): 0.08235 min⁻¹ | GOx Activity ([3]; IC50 data, inhibitor 700.0 nM, glucose 10 mM): 0.0656 min⁻¹ | GOx Activity ([3]; IC50 data, inhibitor 1400.0 nM, glucose 10 mM): 0.0557 min⁻¹ | GOx Activity ([3]; IC50 data, inhibitor 7000.0 nM, glucose 10 mM): 0.0417 min⁻¹ | GOx Activity ([3]; IC50 data, inhibitor 140000.0 nM, glucose 10 mM): 0.0376 min⁻¹ | GOx Activity ([3]; Ki data, inhibitor 7,0·10^-7 M, [Glucose] 0.0002 M): 0.0019 min⁻¹ | GOx Activity ([3]; Ki data, inhibitor 7,0·10^-7 M, [Glucose] 0.0007 M): 0.0067 min⁻¹ | GOx Activity ([3]; Ki data, inhibitor 7,0·10^-7 M, [Glucose] 0.0014 M): 0.01145 min⁻¹ | GOx Activity ([3]; Ki data, inhibitor 7,0·10^-7 M, [Glucose] 0.0028 M): 0.02218 min⁻¹ | GOx Activity ([3]; Ki data, inhibitor 7,0·10^-7 M, [Glucose] 0.004 M): 0.02548 min⁻¹ | GOx Activity ([3]; Ki data, inhibitor 7·10^-8 M, [Glucose] 0.0002 M): 0.0021 min⁻¹ | GOx Activity ([3]; Ki data, inhibitor 7·10^-8 M, [Glucose] 0.0007 M): 0.01063 min⁻¹ | GOx Activity ([3]; Ki data, inhibitor 7·10^-8 M, [Glucose] 0.0014 M): 0.01978 min⁻¹ | GOx Activity ([3]; Ki data, inhibitor 7·10^-8 M, [Glucose] 0.0028 M): 0.03193 min⁻¹ | GOx Activity ([3]; Ki data, inhibitor 7·10^-8 M, [Glucose] 0.004 M): 0.0385 min⁻¹ | GOx Activity ([3]; Ki data, inhibitor 14·10^-7 M, [Glucose] 0.0002 M): 0.00175 min⁻¹ | GOx Activity ([3]; Ki data, inhibitor 14·10^-7 M, [Glucose] 0.0007 M): 0.006225 min⁻¹ | GOx Activity ([3]; Ki data, inhibitor 14·10^-7 M, [Glucose] 0.0014 M): 0.013 min⁻¹ | GOx Activity ([3]; Ki data, inhibitor 14·10^-7 M, [Glucose] 0.0028 M): 0.01805 min⁻¹ | GOx Activity ([3]; Ki data, inhibitor 14·10^-7 M, [Glucose] 0.004 M): 0.02392 min⁻¹ | GOx Activity ([3]; Ki data, inhibitor 14·10^-8 M, [Glucose] 0.0002 M): 0.001875 min⁻¹ | GOx Activity ([3]; Ki data, inhibitor 14·10^-8 M, [Glucose] 0.0007 M): 0.008475 min⁻¹ | GOx Activity ([3]; Ki data, inhibitor 14·10^-8 M, [Glucose] 0.0014 M): 0.0135 min⁻¹ | GOx Activity ([3]; Ki data, inhibitor 14·10^-8 M, [Glucose] 0.0028 M): 0.0304 min⁻¹ | GOx Activity ([3]; Ki data, inhibitor 14·10^-8 M, [Glucose] 0.004 M): 0.0395 min⁻¹ | 1/Vo ([3]; inhibitor 0,7 µM, 1/[glucose] 250 M-1): 41.8673 min | 1/Vo ([3]; inhibitor 0,7 µM, 1/[glucose] 357 M-1): 59.4498 min | 1/Vo ([3]; inhibitor 0,7 µM, 1/[glucose] 714 M-1): 110.461 min | 1/Vo ([3]; inhibitor 0,7 µM, 1/[glucose] 1430 M-1): 185.984 min | 1/Vo ([3]; inhibitor 0,7 µM, 1/[glucose] 5000 M-1): 603.288 min | 1/Vo ([3]; inhibitor 1,4 µM, 1/[glucose] 250 M-1): 56.7644 min | 1/Vo ([3]; inhibitor 1,4 µM, 1/[glucose] 357 M-1): 75.4986 min | 1/Vo ([3]; inhibitor 1,4 µM, 1/[glucose] 714 M-1): 81.9727 min | 1/Vo ([3]; inhibitor 1,4 µM, 1/[glucose] 1430 M-1): 178.284 min | 1/Vo ([3]; inhibitor 1,4 µM, 1/[glucose] 5000 M-1): 687.292 min | Inhibitor Type ([3]; Lineweaver–Burk plots): non-competitive | IC50 ([3]; [Glucose] 10 mM, 37 °C, sodium acetate buffer pH 5.1): 1800 ± 100 nM | Ki ([3]; non-competitive inhibition model, 37 °C, sodium acetate buffer pH 5.1): 1700 ± 200 nM | Normalized Change of RPA (NC) ([4]; 0% Secox): -1,00 | Normalized Change of RPA (NC) ([4]; 5% Secox): -1,00 | Normalized Change of RPA (NC) ([5]; 0% Secox): -0,49 | Normalized Change of RPA (NC) ([5]; 5% Secox): -0,50
